Counter-ions that a name gives are not always drawn. ± gives the standard deviation of the averaged measurements.
System: HepaRG
Test: LDH release cytotoxicity, % of total lysis control; higher = more cytotoxic
Settings: 48 h
Method in brief: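 Duplicate wells of single-lot HepaRG cells, grown on collagen I-coated 96-well plates, received eight-point half-log series of test chemicals with 100 µM as the top concentration. Exposure lasted 48 h in serum-free induction medium with 0.5% DMSO, while total lysis wells received 0.1% Triton X. Resorufin fluorescence (CytoTox-ONE, Tecan Safire) was used to quantify LDH leaked into 50 µL of spent medium. Values for percent cytotoxicity were normalized to on-plate vehicle and total lysis controls and averaged across the duplicates.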

SMILES	LDH release cytotoxicity (0.03162 µM) [%]	LDH release cytotoxicity (0.1 µM) [%]	LDH release cytotoxicity (0.3162278 µM) [%]	LDH release cytotoxicity (1 µM) [%]	LDH release cytotoxicity (3.16228 µM) [%]	LDH release cytotoxicity (10 µM) [%]	LDH release cytotoxicity (31.6228 µM) [%]	LDH release cytotoxicity (100 µM) [%]	further results
CN(C)C(=O)NC1(c2ccccc2)CCN(CCC2(c3ccc(F)c(F)c3)CN(C(=O)c3ccccc3)CCO2)CC1 (configuration not stated)	–	–	–	–	–	–	–	–	LDH release cytotoxicity (0.0297254 µM): -1.81 ± 0.57%; LDH release cytotoxicity (0.094 µM): -1.79 ± 0.3%; LDH release cytotoxicity (0.297254 µM): -2.55 ± 0.21%; LDH release cytotoxicity (0.94 µM): -1.66 ± 1.4%; LDH release cytotoxicity (2.97254 µM): -1.69 ± 1.1%; LDH release cytotoxicity (9.4 µM): -1.59 ± 0.17%; LDH release cytotoxicity (29.72541 µM): 0.14 ± 0.97%; LDH release cytotoxicity (94 µM): 13.5 ± 2.6%
CC(C)=CCC/C(C)=C\CO [(2Z)-3,7-Dimethylocta-2,6-dien-1-ol]	-0.521 ± 1.3	-0.112 ± 1.1	0.637 ± 0.11	0.207 ± 0.16	0.25 ± 0.08	0.588 ± 0.27	0.393 ± 0.26	1.1 ± 0.14	–
CCCOC(=O)NCCCN(C)C [Propamocarb hydrochloride]	0.518 ± 0.36	-0.315 ± 0.73	-0.112 ± 0.25	-0.746 ± 0.025	0 ± 0.72	0.683 ± 0.9	0.664 ± 0.54	0.411 ± 0.061	–
C#CCN1C(=O)COc2cc(F)c(N3C(=O)C4=C(CCCC4)C3=O)cc21 [Flumioxazin]	-0.355 ± 0.95	-0.895 ± 0.2	-0.721 ± 1.1	-1.33 ± 0.85	-0.964 ± 0.086	-1.1 ± 0.023	-0.837 ± 0.11	0.763 ± 0.79	–
O=P1(N(CCCl)CCCl)NCCCO1 (configuration not stated) [Cyclophosphamide monohydrate]	-1.01 ± 0.51	-1.29 ± 0.25	-1.53 ± 0.08	-1.41 ± 0.039	-1.5 ± 0.48	-0.484 ± 0.23	-0.76 ± 0.39	1.23 ± 0.55	–
Oc1nc(O)nc(O)n1 [Cyanuric acid]	–	–	–	–	–	–	–	–	LDH release cytotoxicity (0.0314647 µM): -2.84 ± 0.097%; LDH release cytotoxicity (0.0995 µM): -3.15 ± 0.5%; LDH release cytotoxicity (0.3146466 µM): -2.69 ± 0.67%; LDH release cytotoxicity (0.995 µM): -2.08 ± 0.61%; LDH release cytotoxicity (3.14647 µM): -2.52 ± 0.74%; LDH release cytotoxicity (9.95 µM): -1.85 ± 1.4%; LDH release cytotoxicity (31.4647 µM): -1.63 ± 0.51%; LDH release cytotoxicity (99.5 µM): -0.7 ± 1.2%
O=S(=O)(O)C(F)(F)C(F)(F)C(F)(F)C(F)(F)C(F)(F)C(F)(F)C(F)(F)C(F)(F)F [Potassium perfluorooctanesulfonate]	–	–	–	–	–	–	–	–	LDH release cytotoxicity (0.03036 µM): -2.82 ± 0.99%; LDH release cytotoxicity (0.096 µM): -1.72 ± 1.2%; LDH release cytotoxicity (0.303579 µM): -2.71 ± 0.49%; LDH release cytotoxicity (0.96 µM): -2.314 ± 0.0065%; LDH release cytotoxicity (3.03579 µM): -2.44 ± 0.43%; LDH release cytotoxicity (9.6 µM): -1.36 ± 0.89%; LDH release cytotoxicity (30.3579 µM): -1.03 ± 0.88%; LDH release cytotoxicity (96 µM): 27.2 ± 1.1%
Cc1cc(F)ccc1-c1cc(N2CCC(O)C2CO)ncc1N(C)C(=O)C(C)(C)c1cc(C(F)(F)F)cc(C(F)(F)F)c1 (configuration not stated)	–	–	–	–	–	–	–	–	LDH release cytotoxicity (0.02577 µM): -0.371 ± 0.69%; LDH release cytotoxicity (0.0815 µM): -1.04 ± 0.056%; LDH release cytotoxicity (0.2577256 µM): -1.11 ± 0.12%; LDH release cytotoxicity (0.815 µM): -0.898 ± 0.74%; LDH release cytotoxicity (2.57726 µM): -1.2 ± 0.34%; LDH release cytotoxicity (8.15 µM): -1.08 ± 0.097%; LDH release cytotoxicity (25.7726 µM): 12.91 ± 0.041%; LDH release cytotoxicity (81.5 µM): 86.4 ± 2.3%
O=C(OCCCCCOC(=O)c1ccccc1)c1ccccc1 [Pentane-1,5-diyl dibenzoate]	-0.742 ± 0.19	-0.929 ± 0.18	-1.73 ± 0.77	-1.19 ± 0.099	-0.893 ± 0.47	-0.935 ± 0.24	-0.87 ± 0.083	-0.0778 ± 0.93	–
CC(C)(C)c1cc(C=C2SC(=N)NC2=O)cc(C(C)(C)C)c1O [Darbufelone mesylate]	-2.49 ± 0.67	-3.41 ± 0.28	-3.09 ± 0.45	-3.16 ± 0.65	-3.23 ± 0.27	-3.27 ± 0.089	-2.49 ± 1	-1.56 ± 0.092	–
CCCOC(=O)c1ccc(C(=O)OCCC)nc1 [Dipropyl 2,5-pyridinedicarboxylate]	–	–	–	–	–	–	–	–	LDH release cytotoxicity (0.03305 µM): -4.74 ± 0.19%; LDH release cytotoxicity (0.1045 µM): -5.46 ± 0.7%; LDH release cytotoxicity (0.330458 µM): -5.78 ± 1.4%; LDH release cytotoxicity (1.045 µM): -4.98 ± 2.6%; LDH release cytotoxicity (3.30458 µM): -5.75 ± 0.92%; LDH release cytotoxicity (10.45 µM): -5.51 ± 1.6%; LDH release cytotoxicity (33.0458 µM): -4.96 ± 1.7%; LDH release cytotoxicity (104.5 µM): -4.42 ± 1.1%
Cc1ccc([N+](=O)[O-])cc1 [4-Nitrotoluene]	-0.445 ± 0.2	-1.19 ± 1.1	-0.0775 ± 0.88	-0.642 ± 0.3	-0.56 ± 0.64	-0.236 ± 0.032	-0.713 ± 0.035	1.62 ± 0.18	–
O=S(=O)(O)C(F)(F)C(F)(F)C(F)(F)C(F)(F)F [Potassium perfluorobutanesulfonate]	–	–	–	–	–	–	–	–	LDH release cytotoxicity (0.0332039 µM): -0.897 ± 0.78%; LDH release cytotoxicity (0.105 µM): -1.25 ± 1.1%; LDH release cytotoxicity (0.332039 µM): -2.33 ± 0.91%; LDH release cytotoxicity (1.05 µM): -2.02 ± 0.33%; LDH release cytotoxicity (3.32039 µM): -1.34 ± 0.56%; LDH release cytotoxicity (10.5 µM): -1.05 ± 0.085%; LDH release cytotoxicity (33.2039 µM): -1.53 ± 0.46%; LDH release cytotoxicity (105 µM): 0.458 ± 0.54%
CCCCc1ccc2c(n1)C(c1ccc(OC)cc1CC(C)C(=O)O)C(C(=O)O)C2c1ccc2c(c1)OCO2 (configuration not stated) [MK-547]	-0.553 ± 0.95	-1.23 ± 0.22	-0.915 ± 0.25	-1.66 ± 0.29	-0.888 ± 0.3	-0.832 ± 0.16	-0.204 ± 0.43	0.0481 ± 0.055	–
CNC(=O)N(C)c1nnc(C(C)(C)C)s1 [Tebuthiuron]	-1.29 ± 0.35	-1.38 ± 0.11	-1.87 ± 0.62	-1.53 ± 0.63	-0.935 ± 0.044	-1.24 ± 0.31	-1.15 ± 0.46	0.223 ± 0.25	–
CCN(CC)N=O [N-Nitrosodiethylamine]	-0.893 ± 0.61	-0.536 ± 0.29	-0.901 ± 0.49	-0.963 ± 0.049	-0.649 ± 0.33	-1.08 ± 0.2	0.447 ± 0.97	0.842 ± 0.95	–
CC(C)(c1ccc(O)cc1)c1ccc(O)cc1 [Bisphenol A]	-1.32 ± 0.3	-0.356 ± 1.2	-1.1 ± 0.41	-1.37 ± 0.015	-0.158 ± 0.45	0.439 ± 0.41	0.463 ± 0.27	1.47 ± 1.2	–
CC(C)Oc1cccc(NC(=O)c2ccccc2C(F)(F)F)c1 [Flutolanil]	–	-2.54 ± 0.44	–	-2.18 ± 0.77	-1.81 ± 1.2	-1.86 ± 0.057	-0.343 ± 0.59	3.01 ± 0.1	LDH release cytotoxicity (0.031623 µM): -1.37 ± 1.1%; LDH release cytotoxicity (0.316228 µM): -3.14 ± 0.46%
[O-][Cl+]O [Sodium chlorite]	0.165 ± 0.73	0.219 ± 1.2	-0.973 ± 0.84	-1.49 ± 0.98	-1.49 ± 0.44	0.0935 ± 0.52	-0.775 ± 0.093	1.68 ± 0.64	–

— the supplement of paper PMC7840683
